According to ChEMBL document CHEMBL1649173, “Single-dose escalation and multiple-dose safety, tolerability, and pharmacokinetics of IDX899, a candidate human immunodeficiency virus type 1 nonnucleoside reverse transcriptase inhibitor, in healthy subjects” (Antimicrob Agents Chemother, 2009):

Tests used:
[1] = Apparent total volume of distribution in healthy human at 800 mg, po qd after 7 days; assay type: ADME, organism-based; conditions: in vivo, read-out: Vz/F
[2] = Half life in fed state healthy human at 400 mg, po administered as single dose; assay type: ADME, organism-based; conditions: in vivo
[3] = Apparent total plasma clearance in healthy human at 800 mg, po qd after 1 day; assay type: ADME, organism-based
[4] = Apparent total plasma clearance in fasted state healthy human at 50 mg, po administered as single dose; assay type: ADME, organism-based
[5] = Apparent total volume of distribution in healthy human at 800 mg, po qd after 1 day; assay type: ADME, organism-based; conditions: in vivo, read-out: Vz/F
[6] = Half life in healthy human at 800 mg, po qd after 7 days; assay type: ADME, organism-based; conditions: in vivo
[7] = Plasma concentration in fasted state healthy human at 50 mg, po administered as single dose after 24 hrs; assay type: ADME, organism-based
[8] = Half life in fasted state healthy human at 200 mg, po administered as single dose; assay type: ADME, organism-based; conditions: in vivo
[9] = tested on: Homo sapiens; assay: Toxicity in healthy human assessed as incidence of adverse events at 50 to 1200 mg, po administered as single dose; assay type: organism-based; conditions: in vivo
[10] = Trough plasma concentration in healthy human at 800 mg, po qd after 7 days; assay type: ADME, organism-based; conditions: read-out: Cmin
[11] = AUC (0 to infinity) in fed state healthy human at 400 mg, po administered as single dose; assay type: ADME, organism-based; design: dose 400 mg, route oral, time infinity; conditions: plasma
[12] = Tmax in fed state healthy human at 200 mg, po administered as single dose; assay type: ADME, organism-based; conditions: in vivo
[13] = tested on: Homo sapiens; assay: Toxicity in healthy human assessed as incidence of adverse events at 400 mg, po bid and 800 mg, po qd for 7 days; assay type: organism-based; conditions: in vivo, 168 h
[14] = Cmax in fasted state healthy human at 200 mg, po administered as single dose; assay type: ADME, organism-based; design: dose 200 mg, route oral; conditions: in vivo
[15] = AUC (0 to infinity) in fasted state healthy human at 200 mg, po administered as single dose; assay type: ADME, organism-based; design: dose 200 mg, time infinity, route oral; conditions: plasma
[16] = Tmax in fasted state healthy human at 400 mg, po administered as single dose; assay type: ADME, organism-based; conditions: in vivo
[17] = Tmax in healthy human at 800 mg, po qd after 1 day; assay type: ADME, organism-based; conditions: in vivo
[18] = AUC (0 to infinity) in fasted state healthy human at 400 mg, po administered as single dose; assay type: ADME, organism-based; design: dose 400 mg, time infinity, route oral; conditions: plasma
[19] = Tmax in fed state female healthy human at 400 mg, po administered as single dose; assay type: ADME, organism-based; conditions: in vivo
[20] = Half life in fasted state healthy human at 100 mg, po administered as single dose; assay type: ADME, organism-based; conditions: in vivo
[21] = Apparent total volume of distribution in fed state female healthy human at 400 mg, po administered as single dose; assay type: ADME, organism-based; conditions: in vivo, read-out: Vz/F
[22] = tested on: Homo sapiens; assay: Toxicity in healthy human assessed as occurrence of pollakiuria at 50 to 1200 mg, po administered as single dose; assay type: organism-based; conditions: in vivo
[23] = Trough plasma concentration in healthy human at 800 mg, po qd after 1 day; assay type: ADME, organism-based; conditions: read-out: Cmin
[24] = Half life in fed state female healthy human at 400 mg, po administered as single dose; assay type: ADME, organism-based; conditions: in vivo
[25] = Cmax in fed state healthy human at 1200 mg, po administered as single dose; assay type: ADME, organism-based; design: dose 1200 mg, route oral; conditions: in vivo
[26] = Apparent total plasma clearance in fed state healthy human at 1200 mg, po administered as single dose 0; assay type: ADME, organism-based
[27] = Apparent total plasma clearance in fed state female healthy human at 400 mg, po administered as single dose; assay type: ADME, organism-based
[28] = Half life in fed state healthy human at 800 mg, po administered as single dose; assay type: ADME, organism-based; conditions: in vivo
[29] = AUC (0 to infinity) in healthy human at 800 mg, po qd after 1 day; assay type: ADME, organism-based; design: dose 800 mg, time infinity, route oral; conditions: plasma
[30] = Plasma concentration in fed state healthy human at 200 mg, po administered as single dose after 24 hrs; assay type: ADME, organism-based
[31] = AUC (0 to infinity) in fed state healthy human at 1200 mg, po administered as single dose; assay type: ADME, organism-based; design: dose 1200 mg, route oral, time infinity; conditions: plasma
[32] = Half life in fasted state healthy human at 50 mg, po administered as single dose; assay type: ADME, organism-based; conditions: in vivo
[33] = Half life in fasted state healthy human at 400 mg, po administered as single dose; assay type: ADME, organism-based; conditions: in vivo
[34] = Cmax in fasted state healthy human at 100 mg, po administered as single dose; assay type: ADME, organism-based; design: dose 100 mg, route oral; conditions: in vivo
[35] = Tmax in fasted state healthy human at 100 mg, po administered as single dose; assay type: ADME, organism-based; conditions: in vivo
[36] = AUC (0 to infinity) in fed state female healthy human at 400 mg, po administered as single dose; assay type: ADME, organism-based; design: dose 400 mg, time infinity, route oral; conditions: plasma
[37] = Apparent total plasma clearance in fasted state healthy human at 400 mg, po administered as single dose; assay type: ADME, organism-based
[38] = AUC (0 to infinity) in healthy human at 400 mg, po bid after 7 days; assay type: ADME, organism-based; design: dose 400 mg, route oral, time infinity; conditions: plasma
[39] = Plasma concentration in fed state female healthy human at 400 mg, po administered as single dose after 24 hrs; assay type: ADME, organism-based
[40] = Cmax in fasted state healthy human at 400 mg, po administered as single dose; assay type: ADME, organism-based; design: dose 400 mg, route oral; conditions: in vivo
[41] = Plasma concentration in fasted state healthy human at 400 mg, po administered as single dose after 24 hrs; assay type: ADME, organism-based
[42] = Apparent total plasma clearance in healthy human at 800 mg, po qd after 7 days; assay type: ADME, organism-based
[43] = Cmax in fed state healthy human at 400 mg, po administered as single dose; assay type: ADME, organism-based; design: dose 400 mg, route oral; conditions: in vivo
[44] = Plasma concentration in fasted state healthy human at 100 mg, po administered as single dose after 24 hrs; assay type: ADME, organism-based
[45] = tested on: Human immunodeficiency virus 1; assay: Antiviral activity against HIV1; assay type: functional, organism-based
[46] = Half life in fed state healthy human at 200 mg, po administered as single dose; assay type: ADME, organism-based; conditions: in vivo
[47] = Tmax in fasted state healthy human at 50 mg, po administered as single dose; assay type: ADME, organism-based; conditions: in vivo
[48] = tested on: Homo sapiens; assay: Toxicity in healthy human assessed as incidence of dizziness at 400 mg, po bid and 800 mg, po qd for 7 days; assay type: organism-based; conditions: in vivo, 168 h
[49] = Plasma concentration in fed state healthy human at 800 mg, po administered as single dose after 24 hrs; assay type: ADME, organism-based
[50] = tested on: Homo sapiens; assay: Toxicity in healthy human assessed as occurrence of abnormal dreams at 50 to 1200 mg, po administered as single dose; assay type: organism-based; conditions: in vivo
[51] = tested on: Homo sapiens; assay: Toxicity in healthy human assessed as occurrence of dizziness at 50 to 1200 mg, po administered as single dose; assay type: organism-based; conditions: in vivo

## COP(=O)(c1cc(C)cc(/C=C/C#N)c1)c1c(C(N)=O)[nH]c2ccc(Cl)cc12 (stereo unspecified)
[1]
  Vd/F: 366 L
[2]
  half-life: 588 min
[3]
  CL/F: 252 mL/min
[4]
  CL/F: 103 mL/min
[5]
  Vd/F: 151 L
[6]
  half-life: 816 min
[7]
  concentration at 24 h: 50 ng/mL
[8]
  half-life: 714 min
[9]
  Activity: 22.4%
[10]
  concentration at 168 h: 900 ng/mL
[11]
  AUC(0-inf): 36000 ng·h/mL
[12]
  Tmax: 7 h
[13]
  Activity: 43.8%
[14]
  Cmax: 700 ng/mL
[15]
  AUC(0-inf): 7100 ng·h/mL
[16]
  Tmax: 1.8 h
[17]
  Tmax: 4 h
[18]
  AUC(0-inf): 14700 ng·h/mL
[19]
  Tmax: 5 h
[20]
  half-life: 408 min
[21]
  Vd/F: 329 L
[22]
  Activity: 0%
[23]
  concentration at 24 h: 900 ng/mL
[24]
  half-life: 834 min
[25]
  Cmax: 5600 ng/mL
[26]
  CL/F: 197 mL/min
[27]
  CL/F: 268 mL/min
[28]
  half-life: 690 min
[29]
  AUC(0-inf): 68000 ng·h/mL
[30]
  concentration at 24 h: 190 ng/mL
[31]
  AUC(0-inf): 106 µg·h/mL
[32]
  half-life: 372 min
[33]
  half-life: 876 min
[34]
  Cmax: 3000 ng/mL
[35]
  Tmax: 1.5 h
[36]
  AUC(0-inf): 26500 ng·h/mL
[37]
  CL/F: 480 mL/min
[38]
  AUC(0-inf): 35200 ng·h/mL
[39]
  concentration at 24 h: 290 ng/mL
[40]
  Cmax: 1100 ng/mL
[41]
  concentration at 24 h: 160 ng/mL
[42]
  CL/F: 292 mL/min
[43]
  Cmax: 2400 ng/mL
[44]
  concentration at 24 h: 90 ng/mL
[45]
  IC50: 1.2 nM
[46]
  half-life: 570 min
[47]
  Tmax: 1.5 h
[48]
  Activity: 0%
[49]
  concentration at 24 h: 540 ng/mL
[50]
  Activity: 2%
[51]
  Activity: 2%
